± gives the standard deviation of the averaged measurements.
Columns and labels:
Test in all cases: relative viability vs DMSO control (72 h) (fraction); higher = more viable cells
HT1080 = system: HT1080
Method in brief: (§1)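 Plates held 72 h at 37 °C and 5% CO2 contained sarcoma cell lines seeded in 384-well format to reach 80–90% confluence, plus 2.5 µl of serially diluted compound added after 24 h. Source plate concentrations ran from 10 mM to 0.0002 mM, with 0.1% DMSO as vehicle and a 5 µM positive control. Percent growth from ATPLite readings, averaged over up to triplicate wells, gave relative viability. Values were rescaled with 1 as full and 0 as none.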

SW872 = system: SW872
Method in brief: as §1

SW1353 = system: SW1353
Method in brief: as §1

KHOS-NP = system: KHOS-NP
Method in brief: as §1

RD-ES = system: RD-ES
Method in brief: as §1

MES-SA = system: MES-SA
Method in brief: as §1

SK-ES-1 = system: SK-ES-1
Method in brief: as §1

SW684 = system: SW684
Method in brief: as §1

SK-LMS-1 = system: SK-LMS-1
Method in brief: as §1

G401 = system: G401
Method in brief: as §1

VA-ES-BJ = system: VA-ES-BJ
Method in brief: as §1

RD = system: RD
Method in brief: as §1

CO[C@@H]1[C@H](N(C)C(=O)c2ccccc2)C[C@H]2O[C@]1(C)n1c3ccccc3c3c4c(c5c6ccccc6n2c5c31)C(=O)NC4 [Midostaurin]
Conditions	relative viability
G401, 0.00017 µM	0.948 ± 0.029
G401, 0.00051 µM	0.976 ± 0.047
G401, 0.00152 µM	0.98 ± 0.029
G401, 0.00457 µM	0.969 ± 0.029
G401, 0.01372 µM	0.953 ± 0.021
G401, 0.04115 µM	0.878 ± 0.057
G401, 0.1235 µM	0.854 ± 0.012
G401, 0.3704 µM	0.678 ± 0.051
G401, 1.111 µM	0.436 ± 0.0084
G401, 3.333 µM	0.229 ± 0.0045
G401, 10 µM	0.159 ± 0.0084
HT1080, 0.00017 µM	1.01 ± 0.023
HT1080, 0.00051 µM	0.999 ± 0.048
HT1080, 0.00152 µM	1.007 ± 0.0057
HT1080, 0.00457 µM	0.986 ± 0.041
HT1080, 0.01372 µM	1.04 ± 0.057
HT1080, 0.04115 µM	0.987 ± 0.044
HT1080, 0.1235 µM	0.9478 ± 0.0065
HT1080, 0.3704 µM	0.716 ± 0.049
HT1080, 1.111 µM	0.406 ± 0.022
HT1080, 3.333 µM	0.31 ± 0.015
HT1080, 10 µM	0.288 ± 0.0062
KHOS-NP, 0.00017 µM	1.04 ± 0.013
KHOS-NP, 0.00051 µM	1.04 ± 0.03
KHOS-NP, 0.00152 µM	1.04 ± 0.016
KHOS-NP, 0.00457 µM	1.038 ± 0.0094
KHOS-NP, 0.01372 µM	1.02 ± 0.028
KHOS-NP, 0.04115 µM	1.02 ± 0.029
KHOS-NP, 0.1235 µM	0.987 ± 0.043
KHOS-NP, 0.3704 µM	0.893 ± 0.069
KHOS-NP, 1.111 µM	0.39 ± 0.007
KHOS-NP, 3.333 µM	0.257 ± 0.018
KHOS-NP, 10 µM	0.271 ± 0.013
MES-SA, 0.00017 µM	0.87 ± 0.049
MES-SA, 0.00051 µM	0.8799 ± 0.0073
MES-SA, 0.00152 µM	0.889 ± 0.046
MES-SA, 0.00457 µM	0.885 ± 0.04
MES-SA, 0.01372 µM	0.891 ± 0.055
MES-SA, 0.04115 µM	0.866 ± 0.021
MES-SA, 0.1235 µM	0.818 ± 0.018
MES-SA, 0.3704 µM	0.408 ± 0.018
MES-SA, 1.111 µM	0.251 ± 0.013
MES-SA, 3.333 µM	0.139 ± 0.0081
MES-SA, 10 µM	0.0904 ± 0.0051
RD, 0.00017 µM	1.06 ± 0.12
RD, 0.00051 µM	1.06 ± 0.1
RD, 0.00152 µM	1.07 ± 0.052
RD, 0.00457 µM	1.09 ± 0.032
RD, 0.01372 µM	1.09 ± 0.03
RD, 0.04115 µM	1.05 ± 0.027
RD, 0.1235 µM	0.989 ± 0.011
RD, 0.3704 µM	0.731 ± 0.022
RD, 1.111 µM	0.46 ± 0.012
RD, 3.333 µM	0.415 ± 0.01
RD, 10 µM	0.42 ± 0.011
RD-ES, 0.00017 µM	0.971 ± 0.033
RD-ES, 0.00051 µM	0.991 ± 0.034
RD-ES, 0.00152 µM	0.982 ± 0.017
RD-ES, 0.00457 µM	0.938 ± 0.015
RD-ES, 0.01372 µM	0.931 ± 0.025
RD-ES, 0.04115 µM	0.923 ± 0.015
RD-ES, 0.1235 µM	0.883 ± 0.026
RD-ES, 0.3704 µM	0.825 ± 0.043
RD-ES, 1.111 µM	0.166 ± 0.014
RD-ES, 3.333 µM	0.0737 ± 0.0029
RD-ES, 10 µM	0.0525 ± 0.0028
SK-ES-1, 0.00017 µM	0.994 ± 0.04
SK-ES-1, 0.00051 µM	0.969 ± 0.067
SK-ES-1, 0.00152 µM	0.931 ± 0.076
SK-ES-1, 0.00457 µM	0.985 ± 0.049
SK-ES-1, 0.01372 µM	0.987 ± 0.06
SK-ES-1, 0.04115 µM	0.966 ± 0.064
SK-ES-1, 0.1235 µM	0.898 ± 0.044
SK-ES-1, 0.3704 µM	0.266 ± 0.03
SK-ES-1, 1.111 µM	0.0642 ± 0.00092
SK-ES-1, 3.333 µM	0.0543 ± 0.0024
SK-ES-1, 10 µM	0.0611 ± 0.0056
SK-LMS-1, 0.00017 µM	0.981 ± 0.015
SK-LMS-1, 0.00051 µM	0.972 ± 0.013
SK-LMS-1, 0.00152 µM	0.987 ± 0.092
SK-LMS-1, 0.00457 µM	1.02 ± 0.067
SK-LMS-1, 0.01372 µM	1.02 ± 0.042
SK-LMS-1, 0.04115 µM	0.946 ± 0.07
SK-LMS-1, 0.1235 µM	0.793 ± 0.042
SK-LMS-1, 0.3704 µM	0.564 ± 0.031
SK-LMS-1, 1.111 µM	0.392 ± 0.011
SK-LMS-1, 3.333 µM	0.36 ± 0.013
SK-LMS-1, 10 µM	0.364 ± 0.011
SW684, 0.00017 µM	1.08 ± 0.039
SW684, 0.00051 µM	1.05 ± 0.044
SW684, 0.00152 µM	1.05 ± 0.026
SW684, 0.00457 µM	1.02 ± 0.033
SW684, 0.01372 µM	1.04 ± 0.044
SW684, 0.04115 µM	1.05 ± 0.028
SW684, 0.1235 µM	1.08 ± 0.017
SW684, 0.3704 µM	0.863 ± 0.0087
SW684, 1.111 µM	0.524 ± 0.0075
SW684, 3.333 µM	0.406 ± 0.0097
SW684, 10 µM	0.363 ± 0.008
SW872, 0.00017 µM	0.976 ± 0.041
SW872, 0.00051 µM	1 ± 0.04
SW872, 0.00152 µM	0.965 ± 0.046
SW872, 0.00457 µM	0.958 ± 0.053
SW872, 0.01372 µM	0.945 ± 0.096
SW872, 0.04115 µM	0.896 ± 0.094
SW872, 0.1235 µM	0.826 ± 0.091
SW872, 0.3704 µM	0.592 ± 0.022
SW872, 1.111 µM	0.399 ± 0.019
SW872, 3.333 µM	0.253 ± 0.013
SW872, 10 µM	0.219 ± 0.015
SW1353, 0.00017 µM	0.918 ± 0.033
SW1353, 0.00051 µM	0.927 ± 0.049
SW1353, 0.00152 µM	0.9048 ± 0.00026
SW1353, 0.00457 µM	0.916 ± 0.014
SW1353, 0.01372 µM	0.883 ± 0.037
SW1353, 0.04115 µM	0.879 ± 0.034
SW1353, 0.1235 µM	0.712 ± 0.043
SW1353, 0.3704 µM	0.411 ± 0.013
SW1353, 1.111 µM	0.272 ± 0.012
SW1353, 3.333 µM	0.229 ± 0.0077
SW1353, 10 µM	0.218 ± 0.0078
VA-ES-BJ, 0.00017 µM	0.978 ± 0.051
VA-ES-BJ, 0.00051 µM	0.943 ± 0.042
VA-ES-BJ, 0.00152 µM	0.974 ± 0.048
VA-ES-BJ, 0.00457 µM	0.978 ± 0.0096
VA-ES-BJ, 0.01372 µM	0.958 ± 0.018
VA-ES-BJ, 0.04115 µM	0.945 ± 0.025
VA-ES-BJ, 0.1235 µM	0.917 ± 0.023
VA-ES-BJ, 0.3704 µM	0.668 ± 0.038
VA-ES-BJ, 1.111 µM	0.372 ± 0.019
VA-ES-BJ, 3.333 µM	0.269 ± 0.014
VA-ES-BJ, 10 µM	0.181 ± 0.015

— the supplement of paper PMC10883282
